Tests used:
[1] = biological target: T1, Brd4 bromodomain 1 (BRD4(1)) (Homo sapiens, UniProt O60885); assay: Inhibition of tetra-acetylated histone H4 binding to Brd4 bromodomain 1 (TR-FRET); set-up: key: Active: Compounds with an IC50 value less than 30 μM were deemed to be active.; Not Active: Compounds with an IC50 value less than 30 μM were deemed to be active; details: tetra-acetylated histone H4 peptide, active = IC50 <30 μM
T1 construct: Illustrative results with the first bromodomain of Brd4; made in house; host or cells: E. coli BL21 (DE3)
Outline: (§1)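 N-terminally His-tagged bromodomains (200 nM), expressed in E. coli, were incubated with biotinylated tetra-acetylated histone H4 peptide (25-50 nM), Eu-cryptate streptavidin and XL665 anti-His antibody in HEPES pH 7.4 buffer with KF, 0.2% DMSO, 2 h at room temperature. Inhibition read as decreased 665/620 nm TR-FRET; IC50 from dose-response curves.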

[2] = biological target: T2, second bromodomain of Brd2 (BRD2(2)) (Homo sapiens, UniProt P25440); assay: Inhibition of tetra-acetylated histone H4 binding to Brd2 bromodomain 2 (TR-FRET); set-up: key: Active: Compounds with an IC50 value less than 30 μM were deemed to be active.; Not Active: Compounds with an IC50 value less than 30 μM were deemed to be active; details: tetra-acetylated histone H4 peptide, active = IC50 <30 μM
T2 construct: made in house; host or cells: E. coli BL21 (DE3)
T2 sequence (P25440 344-453 limits assumed): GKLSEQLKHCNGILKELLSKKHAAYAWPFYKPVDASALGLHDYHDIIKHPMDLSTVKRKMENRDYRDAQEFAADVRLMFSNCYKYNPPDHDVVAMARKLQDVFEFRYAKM
Outline: as §1

hMCP-1 mRNA = assay: Inhibition of hMCP-1 mRNA transcription in human peripheral blood mononuclear cells; format: cell-based; set-up: key: Active: Compounds with an IC50 value less than 30 μM were deemed to be active.; Not Active: Compounds with an IC50 value less than 30 μM were deemed to be active; details: 3 h
Procedure: In this example, hMCP-1 mRNA in human peripheral blood mononuclear cells was quantitated to measure the transcriptional inhibition of hMCP-1 when treated with a compound of the present disclosure.
Human Peripheral Blood Mononuclear Cells were plated (1.0×10^5 cells per well) in a 96-well plate in 45 μL RPMI-1640 containing 10% FBS and penicillin/streptomycin. The cells were treated with the test compound (45 μL at 2× concentration), and then the cells were incubated at 37° C. for 3 h before the cells were harvested. At time of harvest, cells were transferred to V-bottom plates and centrifuged (800 rpm, 5 min). Spent media was removed and cell lysis solution (70 μL) was added the cells in each well and incubated for 5-10 min at room temperature, to allow for complete cell lysis and detachment. mRNA was then prepared using the “mRNA Catcher PLUS plate” (Invitrogen), according to the protocol supplied. After the last wash, as much wash buffer as possible was aspirated without allowing the wells to dry. Elution buffer (E3, 70 μL) was then added to each well. mRNA was then eluted by incubating the mRNA Catcher PLUS plate with Elution Buffer for 5 min at 68° C. and then immediately placing the plate on ice.
The eluted mRNA isolated was then used in a one-step quantitative real-time PCR reaction, using components of the Ultra Sense Kit together with Applied Biosystems primer-probe mixes. Real-time PCR data was analyzed, normalizing the Ct values for hMCP-1 to an internal control, prior to determining the fold induction of each unknown sample, relative to the control.

IL-6 and IL-17 cytokines = assay: In vivo efficacy in mouse endotoxemia model; details: C57/B16 mice, oral 75 mg/kg, inhibition in IL-6 and IL-17 post 4-h LPS challenge 0.5 mg/kg i.p.
Procedure: Sub lethal doses of Endotoxin (E. Coli bacterial lipopolysaccharide) were administered to animals to produce a generalized inflammatory response which was monitored by increases in secreted cytokines. Compounds were administered to C57/B16 mice orally at 75 mg/kg dose to evaluate inhibition in IL-6 and IL-17 cytokines post 4-h challenge with lipopolysaccharide (LPS) at 0.5 mg/kg dose intraperitoneally.

hIL-17 mRNA = assay: Inhibition of hIL-17 mRNA transcription in human peripheral blood mononuclear cells; format: cell-based; set-up: key: Active: Compounds with an IC50 value less than 30 μM were deemed to be active.; Not Active: Compounds with an IC50 value less than 30 μM were deemed to be active; details: OKT3 antibody stimulation
Procedure: In this example, hIL-17 mRNA in human peripheral blood mononuclear cells was quantitated to measure the transcriptional inhibition of hIL-17 when treated with a compound of the invention.
Human peripheral blood mononuclear cells were plated (2.0×10^5 cells per well) in a 96-well plate in 45 μL OpTimizer T Cell expansion media containing 20 ng/ml IL-2 and penicillin/streptomycin. The cells were treated with the test compound (45 μL. at 2× concentration), and then the cells were incubated at 37° C. for 1 h before addition of 10× stock OKT3 antibody at 10 ug/ml in media. Cells were incubated at 37° C. for 3 h before the cells were harvested. At time of harvest, cells were centrifuged (800 rpm, 5 min). Spent media was removed and cell lysis solution (70 μL) was added the cells in each well and incubated for 5-10 min at room temperature, to allow for complete cell lysis and detachment. mRNA was then prepared using the “mRNA Catcher PLUS plate” (Invitrogen), according to the protocol supplied. After the last wash, as much wash buffer as possible was aspirated without allowing the wells to dry. Elution buffer (E3, 70 μL) was then added to each well. mRNA was then eluted by incubating the mRNA Catcher PLUS plate with Elution Buffer for 5 min at 68° C. and then immediately placing the plate on ice.
The eluted mRNA isolated was then used in a one-step quantitative real-time PCR reaction, using components of the Ultra Sense Kit together with Applied Biosystems primer-probe mixes. Real-time PCR data was analyzed, normalizing the Ct values for hIL-17 to an internal control, prior to determining the fold induction of each unknown sample, relative to the control.

Cc1noc(C)c1-c1ccc(=O)n(Cc2ccccc2)c1 [Example 56, 1-Benzyl-5-(3,5-dimethylisoxazol-4-yl)pyridin-2(1H)-one]
Active: FRET activity (IC50 <30 μM) BRD4(1) [1] | FRET activity (IC50 <30 μM) BRD2(2) [2] | MCP-1 activity (IC50 < 30 μM) (hMCP-1 mRNA) | In vivo activity (IL-6 and IL-17 cytokines)

Cc1noc(C)c1-c1cc(N)c(=O)n(Cc2ccccc2)c1 [Example 73, 3-Amino-1-benzyl-5-(3,5-dimethylisoxazol-4-yl)pyridin-2(1H)-one]
Active: FRET activity (IC50 <30 μM) BRD4(1) [1] | FRET activity (IC50 <30 μM) BRD2(2) [2] | MCP-1 activity (IC50 < 30 μM) (hMCP-1 mRNA)

Cc1noc(C)c1-c1ccc(=O)n(Cc2ccc(Cl)cc2)c1 [Example 128, 1-(4-Chlorobenzyl)-5-(3,5-dimethylisoxazol-4-yl)pyridin-2(1H)-one]
Active: FRET activity (IC50 <30 μM) BRD4(1) [1] | FRET activity (IC50 <30 μM) BRD2(2) [2] | IL-17 activity (IC50 < 30 μM) (hIL-17 mRNA) | MCP-1 activity (IC50 < 30 μM) (hMCP-1 mRNA) | In vivo activity (IL-6 and IL-17 cytokines)

Cc1noc(C)c1-c1ccc(=O)n([C@H](C)c2ccccc2)c1 [Example 134, (R)-5-(3,5-Dimethylisoxazol-4-yl)-1-(1-phenylethyl)pyridin-2(1H)-one]
Active: FRET activity (IC50 <30 μM) BRD4(1) [1] | FRET activity (IC50 <30 μM) BRD2(2) [2] | MCP-1 activity (IC50 < 30 μM) (hMCP-1 mRNA)

Cc1noc(C)c1-c1cc(N)c(=O)n(Cc2ccc(F)cc2)c1 [Example 180, 3-amino-5-(3,5-dimethylisoxazol-4-yl)-1-(4-fluorobenzyl)pyridin-2(1H)-one]
Active: FRET activity (IC50 <30 μM) BRD4(1) [1] | IL-17 activity (IC50 < 30 μM) (hIL-17 mRNA)

Cc1noc(C)c1-c1cc(N)c(=O)n(Cc2ccsc2)c1 [Example 219, 3-amino-5-(3,5-dimethylisoxazol-4-yl)-1-(thiophen-3-ylmethyl)pyridin-2(1H)-one]
Active: FRET activity (IC50 <30 μM) BRD4(1) [1] | IL-17 activity (IC50 < 30 μM) (hIL-17 mRNA)

Cc1noc(C)c1-c1cc(N)c(=O)n(Cc2ccc(Br)cc2)c1 [Example 241, 3-Amino-1-(4-bromobenzyl)-5-(3,5-dimethylisoxazol-4-yl)pyridin-2(1H)-one]
Active: FRET activity (IC50 <30 μM) BRD4(1) [1] | IL-17 activity (IC50 < 30 μM) (hIL-17 mRNA)

Source: patent US9271978B2 (Zenith Epigenetics Corp., priority 2012, dated 2016)
